Assay results: the NIST ThermoML archive (doi:10.1021/acs.jced.5b00367)

Experiment: mn = molality of the nth substance listed, in mol/kg
Details: 303.15 K, 100 kPa, Liquid, Alternating current cell with electrodes

CCCCCCCCCCCCCCCC[N+](C)(C)C.[Br-] [N,N,N-trimethyl-1-hexadecanaminium bromide] + O
Details	electrical conductivity [S/m]
m1 = 0.0002	0.0028
m1 = 0.0005	0.0061
m1 = 0.0008	0.0092
m1 = 0.00085	0.01
m1 = 0.0009	0.0103
m1 = 0.001	0.011
m1 = 0.0012	0.012
m1 = 0.0014	0.0128
m1 = 0.0016	0.0135
m1 = 0.002	0.0145

CCCCCCCCCC[N+](CC)(CC)CCCCCCCCCC.[Br-] [didecyldiethylammonium bromide] + O
Details	electrical conductivity [S/m]
m1 = 1e-05	0.00039
m1 = 2e-05	0.0006
m1 = 3e-05	0.00072
m1 = 4e-05	0.00143
m1 = 5e-05	0.00224
m1 = 6e-05	0.00293
m1 = 0.0001	0.0034
m1 = 0.0005	0.0048
m1 = 0.001	0.0092
m1 = 0.005	0.0106
m1 = 0.01	0.0132
m1 = 0.015	0.016
m1 = 0.02	0.0182

CCCCCCCCCCCC[N+](CC)(CC)CCCCCCCCCCCC.[Br-] [didodecyldiethylammonium bromide] + O
Details	electrical conductivity [S/m]
m1 = 3e-05	0.00146
m1 = 4e-05	0.00189
m1 = 5e-05	0.0025
m1 = 6e-05	0.0032
m1 = 0.0001	0.00362
m1 = 0.0005	0.00484
m1 = 0.001	0.00678
m1 = 0.002	0.00928
m1 = 0.003	0.0121

CCCCCCCCCCCCCCCC[N+](CC)(CC)CCCCCCCCCCCCCCCC.[Br-] [diethyldihexadecylammonium bromide] + O
Details	electrical conductivity [S/m]
m1 = 5e-06	0.00045
m1 = 1e-05	0.00081
m1 = 1.5e-05	0.00106
m1 = 3e-05	0.00114
m1 = 4e-05	0.00124
m1 = 5e-05	0.00132
m1 = 6e-05	0.00136

CCCCCCCCCCCC[N+](C)(C)C.[Br-] [dodecyltrimethylammonium bromide] + O
Details	electrical conductivity [S/m]
m1 = 0.001	0.014
m1 = 0.005	0.055
m1 = 0.01	0.1
m1 = 0.012	0.12
m1 = 0.015	0.15
m1 = 0.0181	0.165
m1 = 0.0201	0.165
m1 = 0.0252	0.18
m1 = 0.0302	0.195
m1 = 0.0402	0.23
m1 = 0.0502	0.26
